Data as given in ChEMBL document CHEMBL1151997, “Structural analogues of the michellamine anti-HIV agents. Importance of the tetrahydroisoquinoline rings for biological activity” (Bioorg Med Chem Lett, 1997).

Experiments:
[1] = tested on: Human immunodeficiency virus 1; test: In vitro anti-HIV-1 activity in CEM-SS cytoprotection assay; No activity.; type: functional, organism-based
[2] = tested on: CEM-SS; test: In vitro cytotoxicity in CEM-SS cell line up to a concentration of 100 uM.; type: functional, cell-based; conditions: Homo sapiens

EC50 [1] | Structure (SMILES) | IC50 [2] [µM]
Not Active | COc1cc(OC)c2c(O)c(-c3cc(-c4cccc([N+](=O)[O-])c4)c4cc(OC)cc(OC)c4c3O)cc(-c3cccc([N+](=O)[O-])c3)c2c1 | > 100
Not Active | COc1cc(C)cc2c(-c3cccc(N)c3)cc(-c3cc(-c4cccc(N)c4)c4cc(C)cc(OC)c4c3O)c(O)c12 | > 100
Not Active | COc1cccc2c(-c3ccccc3)cc(-c3cc(-c4ccccc4)c4cccc(OC)c4c3O)c(O)c12 | > 100
Not Active | COc1cc(C)cc2c(-c3ccc4c(c3)OCO4)cc(-c3cc(-c4ccc5c(c4)OCO5)c4cc(C)cc(OC)c4c3O)c(O)c12 | > 100
Not Active | COc1cccc2c(-c3cccs3)cc(-c3cc(-c4cccs4)c4cccc(OC)c4c3O)c(O)c12 | > 100
Not Active | COc1cc(C)cc2c(-c3ccc(O)cc3O)cc(-c3cc(-c4ccc(O)cc4O)c4cc(C)cc(OC)c4c3O)c(O)c12 | 2.6
Not Active | COc1cc(OC)c2c(O)c(-c3cc(-c4ccc5c(c4)OCO5)c4cc(OC)cc(OC)c4c3O)cc(-c3ccc4c(c3)OCO4)c2c1 | > 100
Not Active | COc1cc(OC)c2c(O)c(-c3cc(-c4ccccc4)c4cc(OC)cc(OC)c4c3O)cc(-c3ccccc3)c2c1 | > 100
Not Active | COc1cc(OC)c2c(O)c(-c3cc(-c4cccc(N)c4)c4cc(OC)cc(OC)c4c3O)cc(-c3cccc(N)c3)c2c1 | > 100
Not Active | COc1cccc2c(-c3ccc(O)cc3O)cc(-c3cc(-c4ccc(O)cc4O)c4cccc(OC)c4c3O)c(O)c12 | 2.2
Not Active | COc1cc(C)cc2c(-c3cccs3)cc(-c3cc(-c4cccs4)c4cc(C)cc(OC)c4c3O)c(O)c12 | > 100
Not Active | COc1cc(C)cc2c(-c3ccccc3)cc(-c3cc(-c4ccccc4)c4cc(C)cc(OC)c4c3O)c(O)c12 | > 100
Not Active | COc1cccc2c(-c3ccc4c(c3)OCO4)cc(-c3cc(-c4ccc5c(c4)OCO5)c4cccc(OC)c4c3O)c(O)c12 | > 100
Not Active | COc1cc(C)cc2c(-c3cccc([N+](=O)[O-])c3)cc(-c3cc(-c4cccc([N+](=O)[O-])c4)c4cc(C)cc(OC)c4c3O)c(O)c12 | > 100
Not Active | COc1cc(OC)c2c(O)c(-c3cc(-c4ccc(O)cc4O)c4cc(OC)cc(OC)c4c3O)cc(-c3ccc(O)cc3O)c2c1 | 3.9
Not Active | COc1cccc2c(-c3cccc([N+](=O)[O-])c3)cc(-c3cc(-c4cccc([N+](=O)[O-])c4)c4cccc(OC)c4c3O)c(O)c12 | > 100
Not Active | COc1cc(OC)c2c(O)c(-c3cc(-c4cccs4)c4cc(OC)cc(OC)c4c3O)cc(-c3cccs3)c2c1 | > 100
Not Active | COc1cccc2c(-c3cccc(N)c3)cc(-c3cc(-c4cccc(N)c4)c4cccc(OC)c4c3O)c(O)c12 | > 100
